Experimental data reported in patent US10947252B2, “Inhibitors of KEAP1-Nrf2 protein-protein interaction” (Janssen Pharmaceutica NV, priority 2018, dated 2021).

Columns and labels:
[1] = target: Kelch domain of human KEAP1 (321-624 aa) (Homo sapiens (Human), UniProt Q14145); experiment: KEAP1 KELCH ThermoFluor binding assay; conditions: KEAP Kelch […], 1,8-ANS, pH 7.0, average of results obtained, read-out: Tf Kd;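 further: Ligand-induced melting temperature shift of E. coli-expressed KEAP1 Kelch protein, Kd estimated from concentration-response curves of ΔTm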
Sequence of Kelch domain of human KEAP1 (321-624 aa) (Q14145 321-624): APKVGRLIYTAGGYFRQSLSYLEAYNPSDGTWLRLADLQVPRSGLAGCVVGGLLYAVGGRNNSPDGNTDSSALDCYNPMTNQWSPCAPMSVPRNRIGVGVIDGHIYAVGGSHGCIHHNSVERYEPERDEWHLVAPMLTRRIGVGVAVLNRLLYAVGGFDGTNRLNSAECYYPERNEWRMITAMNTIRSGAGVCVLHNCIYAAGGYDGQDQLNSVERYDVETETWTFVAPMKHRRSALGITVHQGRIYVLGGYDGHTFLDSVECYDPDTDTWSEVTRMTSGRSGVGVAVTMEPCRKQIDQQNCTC

[2] = test system: Glo-Response ARE-luc2P HEK293 cell line; experiment: ARE luciferase reporter cell-based assay; conditions: Homo sapiens, HEK293, 24 h, average of results obtained;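 further: luciferase signal tracks Nrf2 activation of the ARE once compounds disrupt KEAP1-Nrf2 binding, read with One-Glo reagent, DMSO serving as low control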

Row | Compound | Kd [1] [nM] | EC50 [2] [nM]
1 | Cc1ccc(C(CC(=O)O)c2ccc3c(nnn3C3CC3)c2C)cc1CN1C[C@@H]2CCCCN2c2ccccc2S1(=O)=O (mixture of isomers) [Example 217, (R/S)-3-(1-Cyclopropyl-4-methyl-1H-benzo[d][1,2,3]triazol-5-yl)-3-(3-(((*S)-5,5-dioxido-7,7a,8,9,10,11-hexahydro-6H-benzo[f]pyrido[2,1-d][1,2,5]thiadiazepin-6-yl)methyl)-4-methylphenyl)propanoic Acid] | < 1 | 11
2 | Cc1ccc([C@H](CC(=O)O)c2ccn3c(C(F)F)nnc3c2C)cc1CN1C[C@]2(C)CCCN2c2ncccc2S1(=O)=O (single isomer, unassigned) [Example 476, (*S)-3-(3-(Difluoromethyl)-8-methyl-[1,2,4]triazolo[4,3-a]pyridin-7-yl)-3-(4-methyl-3-(((*S)-7a-methyl-5,5-dioxido-7a,8,9,10-tetrahydropyrido[2,3-f]pyrrolo[2,1-d][1,2,5]thiadiazepin-6(7H)-yl)methyl)phenyl)propanoic Acid] | < 1 | 219
3 | Cc1cnc2c(c1)S(=O)(=O)N(Cc1cc([C@H](c3ccc4c(nnn4C4CC4)c3C)C(C)(C)C(=O)O)cnc1C)CC1(CCOCC1)O2 (single isomer, unassigned) [Example 228, (*S)-3-(1-Cyclopropyl-4-methyl-1H-benzo[d][1,2,3]triazol-5-yl)-2,2-dimethyl-3-(6-methyl-5-((8′-methyl-1′,1′-dioxido-2,3,5,6-tetrahydrospiro[pyran-4,4′-pyrido[2,3-b][1,4,5]oxathiazepin]-2′(3′H)-yl)methyl)pyridin-3-yl)propanoic Acid] | < 1 | 10
4 | Cc1ccc([C@H](CC(=O)O)c2ccn3c(C(F)(F)F)nnc3c2C)cc1CN1C[C@H]2CN(C)CCN2c2ncccc2S1(=O)=O (single isomer, unassigned) [Example 181, (*S)-3-(4-Methyl-3-(((*R)-9-methyl-5,5-dioxido-7,7a,8,9,10,11-hexahydro-6H-pyrazino[2,1-d]pyrido[2,3-f][1,2,5]thiadiazepin-6-yl)methyl)phenyl)-3-(8-methyl-3-(trifluoromethyl)-[1,2,4]triazolo[4,3-a]pyridin-7-yl)propanoic Acid] | 110 | 1110
5 | Cc1ccc([C@@H](CC(=O)O)c2ccc3c(nnn3CC3CC3)c2C(F)F)cc1CN1CC2CCCN2c2ncccc2S1(=O)=O (stereo in doubt) [Example 68, (*R)-3-(1-(Cyclopropylmethyl)-4-(difluoromethyl-1H-benzo[d][1,2,3]triazol-5-yl)-3-(3-((R-5,5-dioxido-7a,8,9,10-tetrahydropyridi[2,3-f]pyrrolo[2,1-d][1,2,5]thiadiazepin-6(7H)-yl)methyl)-4-methylphenyl)propanoic Acid] | 1.4 | 250
6 | Cc1ccc([C@H](CC(=O)O)c2ccn3c(C(F)(F)F)nnc3c2C)cc1CN1C[C@H]2CCCCN2c2nc(C(N)=O)ccc2S1(=O)=O (single isomer, unassigned) [Example 205, (*S)-3-(3-(((*R)-2-Carbamoyl-5,5-dioxido-7,7a,8,9,10,11-hexahydro-6H-dipyrido[2,1-d:2′,3′-f][1,2,5]thiadiazepin-6-yl)methyl)-4-methylphenyl)-3-(8-methyl-3-(trifluoromethyl)-[1,2,4]triazolo[4,3-a]pyridin-7-yl)propanoic Acid] | < 1 | 130
7 | Cc1ccc([C@@H](CC(=O)O)c2ccn3c(C(F)F)nnc3c2C)cc1CN1CC2(COC2)Oc2ncccc2S1(=O)=O (single isomer, unassigned) [Example 471, (*R)-3-(3-(Difluoromethyl)-8-methyl-[1,2,4]triazolo[4,3-a]pyridin-7-yl)-3-(3-((1′,1′-dioxidospiro[oxetane-3,4′-pyrido[2,3-b][1,4,5]oxathiazepin]-2′(3′H)-yl)methyl)-4-methylphenyl)propanoic Acid] | < 1 | 2630
8 | Cc1cnc2c(c1)S(=O)(=O)N(Cc1cc([C@@H](CC(=O)O)c3ccn4c(C(F)(F)F)nnc4c3C)ccc1C)CC1(CC1)O2 (single isomer, unassigned) [Example 64, (*R)-3-(4-methyl-3-((8′-methyl-1′,1′-dioxidospiro[cyclopropane-1,4′-pyrido[2,3-b][1,4,5]oxathiazepin]-2′(3′H)-yl)methyl)phenyl)-3-(8-methyl-3-(trifluoromethyl)-[1,2,4]triazolo[4,3-a]pyridin-7-yl)propanoic Acid] | < 1 | 304
9 | Cc1cc2c(nc1OCCN1CCCC1)OC1(CC1)CN(Cc1cc([C@@H](c3ccc4c(nnn4C4CC4)c3C)C(C)(C)C(=O)O)cnc1C)S2(=O)=O (single isomer, unassigned) [Example 625, (*R)-3-(1-Cyclopropyl-4-methyl-1H-benzo[d][1,2,3]triazol-5-yl)-2,2-dimethyl-3-(6-methyl-5-((8′-methyl-1′,1′-dioxido-7′-(2-(pyrrolidine-1-yl)ethoxy)spiro[cyclopropane-1,4′-pyrido[2,3-b][1,4,5]]oxathiazepin]-2′(3′H)-yl)methyl)pyridine-3-yl)propanoic Acid] | < 1 | 70.6
10 | Cc1ccc([C@@H](c2ccn3c(C(F)(F)F)nnc3c2C)C(C)(C)C(=O)O)cc1CN1CC2(CC2)Oc2nc(OCCN3CCCC3)ccc2S1(=O)=O (single isomer, unassigned) [Example 598, (*S)-3-(3-((1′,1′-dioxido-7′-(2-(pyrrolidine-1-yl)ethoxy)spiro[cyclopropane-1,4′-pyrido[2,3-b][1,4,5]oxathiazepin]-2′(3′H)-yl)methyl)-4-methylphenyl)-2,2-dimethyl-3-(8-methyl-3-(trifluoromethyl)-[1,2,4]triazolo[4,3-a]pyridine-7-yl)propanoic Acid] | < 1 | 8.85
11 | Cc1ccc([C@@H](CC(=O)O)c2ccn3c(C(F)(F)F)nnc3c2C)nc1CN1CC2(CC2)Oc2ncccc2S1(=O)=O (single isomer, unassigned) [Example 482, (*S)-3-(6-((1′,1′-Dioxidospiro[cyclopropane-1,4′-pyrido[2,3-b][1,4,5]oxathiazepin]-2′(3′H)-yl)methyl)-5-methylpyridin-2-yl)-3-(8-methyl-3-(trifluoromethyl)-[1,2,4]triazolo[4,3-a]pyridin-7-yl)propanoic Acid] | < 1 | 701
12 | Cc1cnc2c(c1)S(=O)(=O)N(Cc1cc([C@@H](c3ccn4c(C(F)F)nnc4c3C)C(C)(C)C(=O)O)ncc1C)CC1(CC1)O2 (single isomer, unassigned) [Example 332, (*S)-3-(3-(Difluoromethyl)-8-methyl-[1,2,4]triazolo[4,3-a]pyridin-7-yl)-2,2-dimethyl-3-(5-methyl-4-((8′-methyl-1′,1′-dioxidospiro[cyclopropane-1,4′-pyrido[2,3-b][1,4,5]oxathiazepin]-2′(3′H)-yl)methyl)pyridin-2-yl)propanoic acid] | < 1 | 25.6
13 | CCn1nnc2c(C)c([C@H](CC(=O)O)c3ccc(C)c(CN4CC5(COC5)Oc5ncccc5S4(=O)=O)n3)ccc21 (single isomer, unassigned) [Example 241, (*S)-3-(6-((1′,1′-Dioxidospiro[oxetane-3,4′-pyrido[2,3-b][1,4,5]oxathiazepin]-2′(3′H)-yl)methyl)-5-methylpyridin-2-yl)-3-(1-ethyl-4-methyl-1H-benzo[d][1,2,3]triazol-5-yl)propanoic Acid] | < 1 | 28
14 | Cc1ccc([C@@H](CC(=O)O)c2ccn3c(C(F)(F)F)nnc3c2C)nc1CN1C[C@H]2CCCCN2c2ncc(C#N)cc2S1(=O)=O (single isomer, unassigned) [Example 35, (*S)-3-(6-(((*R)-3-Cyano-5,5-dioxido-7,7a,8,9,10,11-hexahydro-6H-dipyrido[2,1-d:2′,3′-f][1,2,5]thiadiazepin-6-yl)methyl)-5-methylpyridin-2-yl)-3-(8-methyl-3-(trifluoromethyl)-[1,2,4]triazolo[4,3-a]pyridin-7-yl)propanoic Acid] | < 1 | 65.7
15 | Cc1ccc([C@H](CC(=O)O)c2ccn3c(C(F)(F)F)nnc3c2C)cc1CN1C[C@H]2CCCCN2c2ncccc2S1(=O)=O (single isomer, unassigned) [Example 272, (*S)-3-(3-(((*R)-5,5-Dioxido-7,7a,8,9,10,11-hexahydro-6H-dipyrido[2,1-d:2′,3′-f][1,2,5]thiadiazepin-6-yl)methyl)-4-methylphenyl)-3-(8-methyl-3-(trifluoromethyl)-[1,2,4]triazolo[4,3-a]pyridin-7-yl)propanoic Acid] | < 1 | 10.9
16 | Cc1ccc([C@H](c2ccc3c(nnn3C3CC3)c2C)C(C)(C)C(=O)O)cc1CN1CC2(CC2)Oc2nc(N[C@@H](C)CN3CCCCC3)c(C)cc2S1(=O)=O (single isomer, unassigned) [Example 660, (*R)-3-(1-Cyclopropyl-4-methyl-1H-benzo[d][1,2,3]triazol-5-yl)-2,2-dimethyl-3-(4-methyl-3-((8′-methyl-1′,1′-dioxido-7′-(((S)-1-(piperidin-1-yl)propan-2-yl)amino)spiro[cyclopropane-1,4′-pyrido[2,3-b][1,4,5]oxathiazepin]-2′(3′H)-yl)methyl)phenyl)propanoic Acid] | 681 | 235
17 | Cc1cnc2c(c1)S(=O)(=O)N(Cc1cc(C(c3ccc4c(nnn4C4CC4)c3C)C(C)(C)C(=O)O)cnc1C)CC1(CCOCC1)O2 (racemic) [Example 227, (R/S)-3-(1-Cyclopropyl-4-methyl-1H-benzo[d][1,2,3]triazol-5-yl)-2,2-dimethyl-3-(6-methyl-5-((8′-methyl-1′,1′-dioxido-2,3,5,6-tetrahydrospiro[pyran-4,4′-pyrido[2,3-b][1,4,5]oxathiazepin]-2′(3′H)-yl)methyl)pyridin-3-yl)propanoic Acid] | < 1 | 22
